Data published in patent publication US10072122B2, “Carbonate polymer containing a functional group of disulfide five-membered ring in the side chain and application thereof” (BrightGene Bio-Medical Technology Co., Ltd, priority 2014, dated 2018).
Where a name gives a salt, the structure may show the parent alone.

Assays:
[1] = blood circulation of cross-linked nanoparticle loaded drug in mice; format: in vivo, C57BL/6 mice; conditions: i.v. 10 mg/kg DOX
Method: (§1) Mice were intravenously injected with nanoparticle loaded drug and free drug, and DOX was 10 mg/kg. 10 μL of blood was taken at different time points of 0, 0.25, 0.5, 1, 2, 4, 8, 12 and 24 h, and the weight of blood was calculated with the method of balance. The blood samples upon withdrawing were immediately dissolved in 100 μL 1% triton and 500 μL of extraction solution DMF (containing 1M HCl and 20 mM DTT). Taken the supernatant by centrifugation (20000 rpm, 20 min). The DOX level in the supernatant of each time was determined by fluorometry.

[2] = tested on: B16 melanoma tumor; test: therapeutic efficacy in mice bearing melanoma tumors; format: in vivo, C57BL/6 mice; conditions: DOX 10 mg/kg
[3] = tested on: B16 melanoma tumor; test: biodistribution in mice bearing melanoma tumors; format: in vivo, C57BL/6 mice; conditions: i.v. 10 mg/kg DOX
Method: (§2) Mice were intravenously injected with nanoparticle loaded drug and DOX (DOX was 10 mg/kg) when the tumor volume reached 100-200 mm^3 about two weeks. The mice were sacrificed at 6, 12 or 24 h and the tumor and organs of heart, liver, spleen, lung and kidney were collected, wet weighed, then 500 μL 1% triton was added, homogenized and extracted by 900 μL DMF solution (containing 1 mM HCl and 20 mM DTT). Taken the supernatant by centrifugation (20000 rpm, 20 min). The DOX level at each time was determined by fluorescence measurement.

[4] = tested on: B16 melanoma tumor; test: therapeutic efficacy of iRGD targeting cross-linked vesicles in mice bearing melanoma tumors; format: in vivo, C57BL/6 mice
Method: The tumor size was measured every day using calipers from 0 to 20 day.

[5] = biodistribution in mice bearing human glioma cells; format: in vivo; conditions: Balb/C, mouse, tumor, iv, i.v. 10 mg/kg DOX, read-out: accumulation of DOX in tumor
Method: as §2, with “The” for “Mice were intravenously injected with nanoparticle loaded drug and DOX (DOX was 10 mg/kg) when the tumor volume reached 100-200 mm^3 about two weeks. The”, “4” for “6, 12 or 24”

[6] = blood circulation of targeting cross-linked vesicle loaded drug in mice; format: in vivo, Balb/C mice; conditions: i.v. 10 mg/kg DOX
Method: as §1, with “The vesicle was formed with different ratio of cRGD-PEG6k-P(CDC4.6k-co-TMC18.6k) and PEG5k-P(CDC4.9k-co-TMC19k). […] Mice” for “Mice”, “targeting vesicle” for “nanoparticle”, “drug cRGD20/CLPs, vesicle loaded drug CLPs, targeting decross-linked vesicle cRGD20/PEG-PTMC” for “drug”, “DOX.HCl as control (the” for “free drug, and”, “mg/kg).” for “mg/kg.”

[7] = tested on: U87MG human glioma cells; test: therapeutic efficacy in mice bearing human glioma cells
Method: Aged 4 to 6 weeks old, weight 18 to 20 g Balb/C mice (Shanghai Institutes for Biological Sciences Laboratory Animal Center) were collected. They were evenly divided into groups after weighting. U87MG human glioma cells of 5×10^6 cells were generated by subcutaneous injection into the hind flank of the mice. Mice were intravenously injected with cRGD20/CLPs, CLPs, targeting decross-linked nanoparticle vesicle (cRGD20/PEG-PTMC), DOX.HCl and PBSat 0, 4, 8.12 day when the tumor volume reached 30 to 50 mm^3 about two weeks, where the DOX proportion was 10 mg/kg. The tumor size was measured every two days using calipers from 0 to 18 day. The tumor size was calculated by V=(L*W*H)/2 (L was length of tumor, W was width of tumor, H was thickness of tumor). Continue to observe the survival of mice until 45 day.

Compound | half-lives of eliminate in mice ([1]; C57BL/6 mice) [h] | DOX in blood ([1]; at 2 h) | tumor growth [2] | survival rate ([2]; 10 days) | body weight reduced ([2]; at 7 day) [%] | accumulation in tumor ([3]; 6 h) [ID %/g] | accumulation in tumor ([3]; 12 h) [ID %/g] | accumulation in tumor ([3]; 24 h) [ID %/g] | tumor growth ([4]; 10 mg/kg DOX.HCl at 0, 3, 6, 9, 12 day, 20 day) | declining of body weight ([4]; 10 mg/kg, at 8 day) [%] | survival rate ([4]; 10 days) | tissue uptake at 4 h [5] [%ID/g] | DOX in blood ([6]; at 2 h) | half-life ([6]; mouse, whole blood, iv, Balb/C mice, read-out: half-lives of eliminate in mice (converted)) [min] | tumor growth ([7]; 10 mg/kg DOX at 0, 4, 8, 12 day, 18 day) | declining of body weight ([7]; 10 mg/kg, at 12 day) [%] | survival rate ([7]; 13 days)
COc1cccc2c1C(=O)c1c(O)c3c(c(O)c1C2=O)C[C@@](O)(C(=O)CO)C[C@@H]3O[C@H]1C[C@H](N)[C@H](O)[C@H](C)O1 [DOX, Doxorubicin] | 0.21 | can not detection | can inhibited tumor growth | 0 | 23 | 1.05 | 0.52 | 0.29 |  |  |  |  |  |  |  |  | 
COc1cccc2c1C(=O)c1c(O)c3c(c(O)c1C2=O)C[C@@](O)(C(=O)CO)C[C@@H]3O[C@H]1C[C@H](N)[C@H](O)[C@H](C)O1 [DOX.HCl, doxorubicin hydrochloride] |  |  |  |  |  |  |  |  | can inhibit tumor growth | 20 | 0 | 0.82 | can not detection | 16.2 | can inhibited tumor growth | 21 | 0
